# Where “and” joins values, the source holds several entries; their conditions need not be identical. Identical values can stand only once.
# Key:
# [1] = Stability studies of axitinib co-crystals (Example 4.4); type: physicochemical
# Text: The results are also depicted in Table 8.
# [2] = Solubility of axitinib prodrugs in PBS, 24 h at 22° C., HPLC (Example 6.2); type: physicochemical; conditions: for Mean Solubility / solubility at 24 h: PBS pH 7.2 to 7.4, 24 hours incubation at 22° C.; for solubility at 24 h / Obtained Conc. (replicate): PBS; for solubility at 24 h: 22 °C, pH 7.2, aqueous buffer, thermodynamic from solid; for Obtained Conc. (replicate): 24 h at 22° C., after dilution factor, replicates R1, R2
# Method: • PBS, pH 7.2 • 24 h at 22° C. with continuous shaking • Solubility of test item was determined by HPLC analysis with calibration curve
# [3] = as above; type: physicochemical; conditions: pH 7.4, replicates R1, R2
# [4] = PBS pH 7.4, 37° C.
# [5] = Stability of axitinib polymorph IV in an implant throughout 6 months (Example 11); type: physicochemical
# [6] = Solubility of axitinib free base polymorphs (SAB-I, Polymorph IV) in PBS (Example 6.1); conditions: for Solubility in PBS, Day 1 / Solubility in PBS, Day2 / Solubility in PBS, Day 5 / Solubility in PBS, Day 6 / Solubility in PBS, Day 8 / Equilibrium solubility in PBS, Average (Days 5-8): 37° C., pH 7.2 to 7.4; for Solubility in PBS, Day2: day 2; for Equilibrium solubility in PBS, Average (Days 5-8): average of days 5, 6 and 8, UPLC
# Solubility of axitinib = type: physicochemical; conditions: PBS, 37 °C, pH 7.2, aqueous buffer, thermodynamic from solid; read-out: Solubility in PBS pH 7.2-7.4 (37° C., 5 days)
# physchem [7] = conditions: aqueous with cosolvent or surfactant or cyclodextrin
# physchem [8] = conditions: PBS, 37 °C, pH 7.4, aqueous buffer, thermodynamic from solid
# [9] = axitinib: Rugo et al. 2005; ranibizumab, aflibercept: in the human eye; cited from earlier work
# [10] = NHP study: bioanalysis of axitinib in plasma; type: in vivo, Cynomolgus monkeys; conditions: at sacrifice time points, LLOQ 0.100 ng/mL
# [11] = cited from earlier work
# [12] = tested on: VEGF-induced retinal vascular leakage; test: VEGF challenge study, leakage score over time (Example 14); type: in vivo, Dutch Belted rabbit; conditions: fluorescein angiography, 0 no leakage, 4 no inhibition of leakage
# retinal vessel leakage = test: In vivo VEGF challenge study, leakage by fluorescein angiography; conditions: rabbit VEGF challenge, scale 0 to 4
# Text: The scoring criteria is based on Table 37B.
# [13] = listed as Polymorph IV micronized
compound,measurement,setting,value
O=C(O)[C@H](O)[C@@H](O)C(=O)O [(+)-L-Tartaric acid],HPLC Purity after stability studies 25° C./60% RH,[1],96.66
same,HPLC Purity after stability studies 40° C./75% RH,[1],96.24
same,HPLC Purity after stability studies 80° C.,[1],93.24
same,"Stability-3 days slurry in H2O (25° C.) and 4 days drying at 32° C./0% RH, HPLC",[1],97.50
CNC(=O)c1ccccc1Sc1ccc2c(/C=C/c3ccccn3)nn(COC(=O)CCC(=O)O)c2c1 [Axitinib N-Succinoyloxymethyl Prodrug],Mean Solubility,[2],217.44 µg/mL
same,solubility at 24 h,[2],217 µg/mL
same,Obtained Conc. (replicate),[2],222.06 µg/mL and 212.82 µg/mL
"CNC(=O)c1ccccc1Sc1ccc2c(/C=C/c3ccccn3)nn(COC(=O)CCOC)c2c1 [Axitinib N-m(PEG)1-oxymethyl Prodrug, 3-Methoxy-propionic acid 6-(2-methylcarbamoyl-phenylsulfanyl)-3-((E)-2-pyridin-2-yl-vinyl)-indazol-1-ylmethyl ester]",Conc. (replicate),[3],"BLOQ (“BLOQ” means “below limit of quantification”. i.e., <0.781 μg/mL)"
same,Mean Solubility,[2],Not soluble
"CNC(=O)c1ccccc1Sc1ccc2c(/C=C/c3ccccn3)nn(COC(=O)CCOCCOC)c2c1 [Axitinib N-m(PEG)2-oxymethyl Prodrug, 3-(2-Methoxy-ethoxy)-propionic acid 6-(2-methylcarbamoyl-phenylsulfanyl)-3-((E)-2-pyridin-2-yl-vinyl)-indazol-1-ylmethylester]",Conc. (replicate),[3],1112 ng/mL and 1086 ng/mL
same,solubility at 24 h,[2],1.1 µg/mL
"CNC(=O)c1ccccc1Sc1ccc2c(/C=C/c3ccccn3)nn(COC(=O)CCOCCOCCOC)c2c1 [Axitinib N-m(PEG)3-oxymethyl Prodrug, 3-[2-(2-Methoxy-ethoxy)-ethoxy]-propionic acid 6-(2-methylcarbamoyl-phenylsulfanyl)-3-((E)-2-pyridin-2-yl-vinyl)-indazol-1-ylmethyl ester]",Conc. (replicate),[3],6179 ng/mL and 6146 ng/mL
same,solubility at 24 h,[2],6.16 µg/mL
CNC(=O)c1ccccc1Sc1ccc2c(/C=C/c3ccccn3)nn(COC(=O)CCOCCOCCOCCOC)c2c1 [Axitinib N-m(PEG)4-oxymethyl Prodrug],solubility at 24 h,[2],99.4 µg/mL
same,Obtained Conc. (replicate),[2],100.16 µg/mL and 98.58 µg/mL
O=C(O)CCCC(=O)O [Glutaric acid],"Thermodynamic solubility in PBS, pH 7.4 at 37° C., 2 hours",[4]; 2 hours,LOD
same,"Thermodynamic solubility in PBS, pH 7.4 at 37° C., 4 hours",[4]; 4 hours,LOD
same,"Thermodynamic solubility in PBS, pH 7.4 at 37° C., 24 hours",[4]; 24 hours,LOD
same,HPLC Purity after stability studies 25° C./60% RH,[1],90.81
same,HPLC Purity after stability studies 40° C./75% RH,[1],99.31
same,HPLC Purity after stability studies 80° C.,[1],99.44
same,"Stability-3 days slurry in H2O (25° C.) and 4 days drying at 32° C./0% RH, HPLC",[1],99.80
"CNC(=O)c1ccccc1Sc1ccc2c(/C=C/c3ccccn3)n[nH]c2c1 [Polymorph IV, axitinib]",chemical and physical stability in an implant,[5],chemically and physically stable
CNC(=O)c1ccccc1Sc1ccc2c(/C=C/c3ccccn3)n[nH]c2c1 [SAB-I micronized],"Solubility in PBS, Day 1",[6],0.236 µg/mL
same,"Solubility in PBS, Day2",[6],0.265 µg/mL
same,"Solubility in PBS, Day 5",[6],0.216 µg/mL
same,"Solubility in PBS, Day 6",[6],0.226 µg/mL
same,"Solubility in PBS, Day 8",[6],0.237 µg/mL
CNC(=O)c1ccccc1Sc1ccc2c(/C=C/c3ccccn3)n[nH]c2c1 [SAB-I non-micronized],"Solubility in PBS, Day 1",[6],0.153 µg/mL
same,"Solubility in PBS, Day2",[6],0.228 µg/mL
same,"Solubility in PBS, Day 5",[6],0.190 µg/mL
same,"Solubility in PBS, Day 6",[6],0.194 µg/mL
same,"Solubility in PBS, Day 8",[6],0.188 µg/mL
CNC(=O)c1ccccc1Sc1ccc2c(/C=C/c3ccccn3)n[nH]c2c1 [SAB-I super-micronized],"Solubility in PBS, Day 1",[6],0.246 µg/mL
same,"Solubility in PBS, Day2",[6],0.277 µg/mL
same,"Solubility in PBS, Day 5",[6],0.256 µg/mL
same,"Solubility in PBS, Day 6",[6],0.253 µg/mL
same,"Solubility in PBS, Day 8",[6],0.247 µg/mL
"CNC(=O)c1ccccc1Sc1ccc2c(/C=C/c3ccccn3)n[nH]c2c1 [SAB-I, axitinib]",solubility at 5 days,Solubility of axitinib,0.2 µg/mL
CNC(=O)c1ccccc1Sc1ccc2c(/C=C/c3ccccn3)n[nH]c2c1 [axitinib polymorph IV],"Equilibrium solubility in PBS, Average (Days 5-8)",[6],about 0.435 μg/mL
same,"Equilibrium solubility in PBS, Average (Days 5-8)",[6]; [13],0.435 µg/mL
same,"Solubility in PBS, Day 1",[6]; [13],0.678 µg/mL
same,"Solubility in PBS, Day2",[6]; [13],0.479 µg/mL
same,"Solubility in PBS, Day 5",[6]; [13],0.413 µg/mL
same,"Solubility in PBS, Day 6",[6]; [13],0.443 µg/mL
same,"Solubility in PBS, Day 8",[6]; [13],0.449 µg/mL
CNC(=O)c1ccccc1Sc1ccc2c(/C=C/c3ccccn3)n[nH]c2c1 [axitinib polymorph SAB-I],solubility,physchem [7]; solubility in 25%/75% (v/v) ethanol/water,13.4 µg/mL
same,solubility in PBS,"[6]; PBS pH 7.2 to 7.4, 37° C., after five days of incubation",less than 0.3 μg/mL
same,solubility thermodynamic at 5 days,physchem [8],~0.223 µg/mL
"CNC(=O)c1ccccc1Sc1ccc2c(/C=C/c3ccccn3)n[nH]c2c1 [axitinib, N-methyl-2-[3-((E)-2-pyridin-2-yl-vinyl)-1H-indazol-6-ylsulfanyl]-benzamide]",solubility,physchem [7]; mean solubility value in 25%/75% (v/v) ethanol/water,18.3 µg/mL
same,clearance half-life (t1/2),[9],a few hours
same,Axitinib concentrations in plasma,[10],No measurable amount of axitinib was detected
same,vitreous half-life,[11],2 h
"Bevacizumab: Avastin (bevacizumab), comparator in the VEGF challenge study",Leakage Scores (average),[12]; Day 7,0.0
same,Leakage Scores (average),[12]; Day 17,0.0
same,Leakage Scores (average),[12]; Day 31,0.0
same,Leakage Scores (average),[12]; Day 45,1.0
same,Leakage Scores (average),[12]; Day 59,3.1
same,Leakage Scores (average),[12]; Day 73,3.7
same,leakage score (mean),"retinal vessel leakage; after 60 days, untreated eyes 3.2",3.1
same,leakage score (mean),retinal vessel leakage; going further beyond 60 days,3.7
same,leakage score (mean),retinal vessel leakage; up to 31 days,0.0
Citric Acid,HPLC Purity after stability studies 25° C./60% RH,[1],90.78
same,HPLC Purity after stability studies 40° C./75% RH,[1],93.23
same,HPLC Purity after stability studies 80° C.,[1],86.88
same,"Stability-3 days slurry in H2O (25° C.) and 4 days drying at 32° C./0% RH, HPLC",[1],96.24
Fumaric Acid,HPLC Purity after stability studies 25° C./60% RH,[1],99.60
same,HPLC Purity after stability studies 40° C./75% RH,[1],99.64
same,HPLC Purity after stability studies 80° C.,[1],99.47
same,"Stability-3 days slurry in H2O (25° C.) and 4 days drying at 32° C./0% RH, HPLC",[1],99.76
"aflibercept: anti-VEGF agent, aflibercept intravitreal injection by Regeneron",clearance half-life (t1/2),[9],several days
"ranibizumab: anti-VEGF agent, ranibizumab injection by Genentech",clearance half-life (t1/2),[9],several days
